Literature values in patent US7964202B2, “Method for treatment of common acne” (Galderma Research & Development, S.N.C., priority 2001, dated 2011).
Read-outs that look alike come from different tables or passages of the source.

Legend:
[1] = for degradation time: 40° C.
[2] = in presence of benzoyl peroxide formulation

O=C(OOC(=O)c1ccccc1)c1ccccc1 [Benzoyl peroxide]
Benzoyl peroxide solubility (solvent PEG 400): 39.6 mg/g
Benzoyl peroxide solubility (solvent ethanol): 17.9 mg/g
Benzoyl peroxide solubility (solvent glycerol): 0.15 mg/g
Benzoyl peroxide solubility (solvent propylene glycol): 2.95 mg/g
Benzoyl peroxide solubility (solvent propylene glycol/water (75:25)): 0.36 mg/g
Benzoyl peroxide solubility (solvent water): 0.000155 mg/g
degradation time ([1]; in solution in PEG 400 (0.5 mg/g)): 1.4 days
degradation time ([1]; in solution in ethanol): 29 days
degradation time ([1]; in solution in propylene glycol): 53 days
degradation in suspension (dispersed form) ([1]; in water and propylene glycol, storage for 90 days): not degraded

CC1=C(/C=C/C(C)=C/C=C/C(C)=C/C(=O)O)C(C)(C)CCC1 [tretinoin]
retinoid degraded ([2]; 2 hours): 50%
retinoid degraded ([2]; 24 hours): 95%

COc1ccc(-c2ccc3cc(C(=O)O)ccc3c2)cc1C12CC3CC(CC(C3)C1)C2 [adapalene]
retinoid degraded ([2]; 24 hours): no degradation
